From patent US20260234211A1, “POLYPEPTIDE HAVING MODIFIED STRUCTURE AND USE THEREOF” (Guangdong Raynovent Biotech Co., Ltd., priority 2023, published 2026)

Assays:
GIPR = biological target: T1, GIPR (Homo sapiens, UniProt P48546); experiment: In vitro GIPR agonistic activity test (cAMP, CHO cell line); type: cell-based; details: CHO cells expressing GIPR, read-out: GIP-1 EC50
T1 construct: host or cells: CHO
T1 sequence (P48546 22-466): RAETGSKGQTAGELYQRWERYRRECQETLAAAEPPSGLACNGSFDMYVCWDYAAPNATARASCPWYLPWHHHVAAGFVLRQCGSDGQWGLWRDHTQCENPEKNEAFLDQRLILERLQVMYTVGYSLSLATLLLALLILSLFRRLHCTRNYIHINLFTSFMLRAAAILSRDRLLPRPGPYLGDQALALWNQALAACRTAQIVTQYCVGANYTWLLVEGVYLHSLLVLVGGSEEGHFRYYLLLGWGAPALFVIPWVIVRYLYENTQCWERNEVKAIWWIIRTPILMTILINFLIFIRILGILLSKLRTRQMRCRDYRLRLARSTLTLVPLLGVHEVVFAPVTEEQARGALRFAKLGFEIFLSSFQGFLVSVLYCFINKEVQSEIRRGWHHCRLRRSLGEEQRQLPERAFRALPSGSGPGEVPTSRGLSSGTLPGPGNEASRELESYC
Method: (§1) The cell lines were constructed by Pharmaron Inc. See details in the table below.
(§2) The test compounds were diluted at a 5-fold dilution factor in 10 points, starting from an initial concentration of 200 nM.
(§3) 1) The cell lines were cultured respectively in complete medium at 37° C. and 5% CO2.
(§4) 1) Eu-cAMP tracer was freeze-thawed and diluted 50 fold with detection buffer; and Ulight-anti-cAMP was freeze-thawed and diluted 150 fold with detection buffer.
(§5) 3) 10 μL of Eu-cAMP tracer was added and then 10 μL of Uligh-anti-cAMP was added into experimental wells respectively.
(§6) 4) The reaction plate was centrifuged at 200 g at room temperature for 30 s and left for stand at 25° C. for 1 h.

GCGR = biological target: T2, GCGR (Homo sapiens, UniProt P47871); experiment: In vitro GCGR agonistic activity test (cAMP, HEK293 cell line); type: cell-based; details: cAMP, HEK293 cells expressing GCGR; read-out: GCG EC50
T2 construct: host or cells: HEK293
T2 sequence (P47871 26-477, species assumed): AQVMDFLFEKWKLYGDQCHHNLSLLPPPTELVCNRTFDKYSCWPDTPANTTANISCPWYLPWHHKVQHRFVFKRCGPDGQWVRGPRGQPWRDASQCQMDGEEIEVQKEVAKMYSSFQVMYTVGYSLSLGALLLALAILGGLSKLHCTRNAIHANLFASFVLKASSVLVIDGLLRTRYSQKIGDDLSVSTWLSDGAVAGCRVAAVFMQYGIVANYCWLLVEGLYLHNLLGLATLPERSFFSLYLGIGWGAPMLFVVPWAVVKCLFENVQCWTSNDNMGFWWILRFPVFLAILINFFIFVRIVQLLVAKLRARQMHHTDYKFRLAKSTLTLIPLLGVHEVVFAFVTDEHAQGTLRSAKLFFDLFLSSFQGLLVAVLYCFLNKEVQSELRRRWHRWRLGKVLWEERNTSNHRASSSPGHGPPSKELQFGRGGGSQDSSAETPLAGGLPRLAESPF
Method: as §1, §2, §3
2) After digestion with TrypLE, the cells were re-suspended in experimental buffer respectively, and inoculated in a CulturPlate-384 cell culture plate at a density of 2000 cells/well and at a volume of 15 μL/well.
as §4
2) 5 μL of the test compounds were added respectively into experimental wells of the CulturPlate-384 cell culture plate, which was centrifuged at 200 g for 30 s, and left for stand at 37° C. for 30 min.
as §5, §6
5) Envision 2105 was used to collect data, with excitation light at 340 nm and emission light at 665 nm and 615 nm.

GLP-1R = biological target: T3, GLP-1R (Homo sapiens, UniProt P43220); experiment: In vitro GLP-1R agonistic activity test (cAMP, HEK293 cell line); type: cell-based; details: cAMP, HEK293 cells expressing GLP-1R; read-out: GLP-1 EC50
T3 construct: host or cells: HEK293
T3 sequence (P43220 24-463, species assumed): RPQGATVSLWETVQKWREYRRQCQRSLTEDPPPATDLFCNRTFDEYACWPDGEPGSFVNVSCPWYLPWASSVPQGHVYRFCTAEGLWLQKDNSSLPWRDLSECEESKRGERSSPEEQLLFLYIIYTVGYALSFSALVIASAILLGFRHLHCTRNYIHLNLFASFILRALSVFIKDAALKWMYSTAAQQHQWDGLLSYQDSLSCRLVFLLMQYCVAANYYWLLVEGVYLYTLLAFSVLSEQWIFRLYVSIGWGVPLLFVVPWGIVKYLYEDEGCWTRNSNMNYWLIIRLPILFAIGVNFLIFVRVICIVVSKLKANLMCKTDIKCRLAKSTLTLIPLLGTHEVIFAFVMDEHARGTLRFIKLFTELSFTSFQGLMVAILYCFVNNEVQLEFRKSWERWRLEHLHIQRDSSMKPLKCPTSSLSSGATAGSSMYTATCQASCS
Method: as §1, §2, §3, §4, §5, §6

[1] = Metabolic stability in human kidney S9; type: in vitro ADME; details: human, s9
Summary of the method: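 Human kidney S9 (1 mg/mL final) with NADPH and UDPGA cofactors, test compound at 1 μM final, incubated at 37°C. Aliquots quenched with acetonitrile at 0.5, 5, 15, 30 and 60 min; LC-MS/MS peak areas used to derive depletion slopes.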

[2] = Pharmacokinetic properties in Cynomolgus macaques; details: cynomolgus monkey, in vivo
Summary of the method: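 Non-juvenile male cynomolgus macaques were used, three per compound. Plasma was sampled from 1 h to 240 h after administration. Drug levels were quantified by LC-MS/MS and pharmacokinetic parameters calculated from the concentration–time data.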

DIO obesity mouse model = experiment: Pharmacodynamics in DIO obesity mouse model; type: in vivo; details: DIO mice
Description: Experimental purpose: To evaluate the effects of multiple administration of the test substance (compound) on body weight and glucolipid metabolism.
In this experiment, mice were used as test animals, which were induced with a high-fat diet (Research Diets: D12492) from 4-5 weeks old for 8 weeks, and the animals were grouped according to their body weights and fasting blood glucose levels, with the average body weight of the model animals being 47.2±0.3 g, the average body weight of the control animals being 27.9±0.3 g, the average fasting blood glucose of the model animals being 8.8±0.2 mmol/L, and the average fasting blood glucose of the control animals being 6.0±0.2 mmol/L. There were six animals in each group. The animals were administered immediately after grouping and were administered by subcutaneous injection every 3 days for 22 consecutive days. Both the normal control and model groups were given with vehicle (20 mM citrate buffer). Body weight and food intake were measured twice a week. Fasting blood glucose was tested on Days 10 and 20, OGTT test was performed on Day 20, and blood was collected on Day 23 to test the liver function indicators (ALT, AST, ALP) and serum lipid metabolism indicators (TC, TG, HDL, LDL). Liver tissues were taken to calculate organ indexes, and liver lipid metabolism indicators (hepatic TC, TG) were detected. The liver tissues were examined pathologically (HE, Oil Red) to evaluate the effects of the test substances on body weight and glucolipid metabolism in a high-fat diet-induced obesity mouse model.
The experimental data of each group of animals was described as mean±standard error (X±SEM). P<0.05 indicated the statistically significant difference. All statistical analysis was completed using Graphpad 8.0 software.

half-life at 1 μM [1] [h]	microsomal CLint at 1 μM [1] [µL/min/mg]	Compound	EC50 (GIPR) [pM]	EC50 (GCGR) [pM]	EC50 (GLP-1R) [pM]	half-life [1] [h]	microsomal CLint [1] [µL/min/mg]	AUC(0-inf) [2] [µM·h]	AUC(0-t) [2] [µM·h]	Cmax [2] [nM]	Tmax [2] [h]	half-life [2] [h]	Liver-body ratio (DIO obesity mouse model; 10 nmol/kg subcutaneous every 3 days) [g/g]	Change rate of body weight on Day 22 (DIO obesity mouse model; 10 nmol/kg subcutaneous every 3 days, first experiment) [%]	Change rate of body weight on Day 22 (DIO obesity mouse model; 10 nmol/kg, second experiment with similar protocol) [%]	Fasting blood glucose, Day 0 (DIO obesity mouse model; Day 0 (at grouping), 10 nmol/kg group) [mmol/L]	Fasting blood glucose, Day 10 (DIO obesity mouse model; Day 10, 10 nmol/kg subcutaneous every 3 days) [mmol/L]	Fasting blood glucose, Day 20 (DIO obesity mouse model; Day 20, 10 nmol/kg subcutaneous every 3 days) [mmol/L]
–	–	CC[C@H](C)[C@H](NC(=O)[C@H](Cc1ccccc1)NC(=O)[C@H](C)NC(=O)C(C)(C)NC(=O)[C@H](CCC(N)=O)NC(=O)[C@H](C)NC(=O)[C@H](CCCCNC(=O)COCCOCCNC(=O)CC[C@H](NC(=O)CCCCCCCCCCCCCCCCCCC(=O)O)C(=O)O)NC(=O)[C@H](CCCCN)NC(=O)[C@H](CC(=O)O)NC(=O)[C@H](CC(C)C)NC(=O)[C@](C)(CC(C)C)NC(=O)[C@@H](NC(=O)[C@H](CO)NC(=O)[C@H](Cc1ccc(O)cc1)NC(=O)[C@H](CC(=O)O)NC(=O)[C@H](CO)NC(=O)[C@@H](NC(=O)[C@H](Cc1ccccc1)NC(=O)[C@@H](NC(=O)CNC(=O)[C@H](CCC(N)=O)NC(=O)C(C)(C)NC(=O)[C@@H](N)Cc1ccc(O)cc1)[C@@H](C)O)[C@@H](C)O)[C@@H](C)CC)C(=O)N[C@@H](CCC(=O)O)C(=O)N[C@@H](Cc1ccc(O)cc1)C(=O)N[C@@H](CC(C)C)C(=O)N[C@@H](CC(C)C)C(=O)N[C@@H](CCC(=O)O)C(=O)NCC(=O)NCC(=O)N1CCC[C@H]1C(=O)N[C@@H](CO)C(=O)N[C@@H](CO)C(=O)NCC(=O)N[C@@H](C)C(=O)N1CCC[C@H]1C(=O)N1CCC[C@H]1C(=O)N1CCC[C@H]1C(=O)N[C@@H](CO)C(N)=O [LY3437943, reference compound]	1	31	14	> 3.08	< 3.75	2.93	2.7	22.1	29.3	58.8	0.032 ± 0.003	−29.19 ± 2.94	−26.32 ± 1.91	8.2 ± 0.3	5.2 ± 0.9	6.2 ± 0.4
> 3.08	< 3.75	CC[C@H](C)[C@H](NC(=O)[C@H](Cc1ccccc1)NC(=O)[C@@H]1CCCCNC(=O)CN(C(=O)COCCOCCNC(=O)COCCOCCNC(=O)CC[C@H](NC(=O)CCCCCCCCCCCCCCCCCCC(=O)O)C(=O)O)CC(=O)NCCCC[C@H](NC(=O)[C@H](CCCCN)NC(=O)[C@H](CC(=O)O)NC(=O)[C@H](CC(C)C)NC(=O)[C@](C)(CC(C)C)NC(=O)[C@@H](NC(=O)[C@H](CO)NC(=O)[C@H](Cc2ccc(O)cc2)NC(=O)[C@H](CC(=O)O)NC(=O)[C@H](CO)NC(=O)[C@@H](NC(=O)[C@H](Cc2ccccc2)NC(=O)[C@@H](NC(=O)CNC(=O)[C@H](CCC(N)=O)NC(=O)C(C)(C)NC(=O)[C@@H](N)Cc2ccc(O)cc2)[C@@H](C)O)[C@@H](C)O)[C@@H](C)CC)C(=O)N[C@@H](C)C(=O)N[C@@H](CCC(N)=O)C(=O)NC(C)(C)C(=O)N1)C(=O)N[C@@H](CCC(=O)O)C(=O)N[C@@H](Cc1ccc(O)cc1)C(=O)N[C@@H](CC(C)C)C(=O)N[C@@H](CC(C)C)C(=O)N[C@@H](CCC(=O)O)C(=O)NCC(=O)NCC(=O)N1CCC[C@H]1C(=O)N[C@@H](CO)C(=O)N[C@@H](CO)C(=O)NCC(=O)N[C@@H](C)C(=O)N1CCC[C@H]1C(=O)N1CCC[C@H]1C(=O)N1CCC[C@H]1C(=O)N[C@@H](CO)C(N)=O [Example 1, YAibQGT FTSDY SIα- MeLLD K^1KAQAib ^1KFIEY LLEGG PSSGA PPPS-NH2 (SEQ ID NO: 1)]	1	–	9	–	–	–	–	–	–	–	–	–	–	–	–	–
